{
  "source": "patent US7772156B2",
  "about": "“Microbicidal compositions including a cyanodithiocarbimate and a second microbicide, and methods of using the same” (Buckman Laboratories International, Inc., priority 2006, dated 2010)",
  "key": {"[1]": {"test_system": "Aspergillus niger", "assay": "Fungal evaluation: growth prevention of Aspergillus niger in mineral salts-glucose medium, synergism by the method of Kull", "assay_type": "cell-based", "settings": "for X (QA/Qa+QB/Qb), Test 1 / X (QA/Qa+QB/Qb), Test 2 / X (QA/Qa+QB/Qb), Test 3: combination of S-chloromethyl-S'-hexylcyanodithioimidocarbimate (A) with the named second microbicide (B), Aspergillus niger, 7 days, 25° C., X<1 synergistic, X=1 additive, X>1 antagonistic; for QA = lowest concentration of compound A in the mixture which produced an end point: compound A in mixture with the named compound B; for Qb = lowest concentration of compound B acting alone which produced an end point: named compound B alone; for QB = lowest concentration of compound B in the mixture which produced an end point: named compound B in mixture with compound A", "method": "Mineral salts-glucose medium was used. To prepare the medium, the following ingredients were added to 1 liter of deionized water: 0.7 g of KH2PO4; 0.7 g of MgSO4·7H2O; 1.0 g of HN4NO3; 0.005 g of NaCl; 0.002 g of FeSO4·7H2O; 0.002 g ZnSO4·7H2O; 0.001 g of MnSO4·7H2O; 10 g of Glucose. The pH of the medium was adjusted to 6 with 1N NaOH. The medium was distributed in 5 ml amounts in test tubes and autoclaved at 121° C. for 20 minutes. The fungus, Aspergillus niger, was grown on potato dextrose agar slant for 5 to 10 days and a spore suspension prepared by washing down the spores from the slant into a sterile saline solution. After addition of the biocides in the desired concentrations in the sterile mineral salts-glucose medium, the fungal spore suspension was added. The final spore concentration was approximately 10^6 cfu/ml. The inoculated media was incubated at 25° C. for 7 days. The experimental design is termed a […] in which each test concentration of compound A is combined with each test concentration of compound B.\nEnd points for the various mixtures were then compared with the end points for the pure active ingredients alone in concomitantly prepared flasks or test tubes.\nWhen the sum of QA/Qa and QB/Qb is greater than one, antagonism is indicated. When the sum is equal to one, additivity is indicated. When the sum is less than one, synergism exists.\nFor: X<1 A and B are synergistic • X=1 A and B are additive • X>1 A and B are antagonistic For combinations of cyanodithiocarbimate with the selected second microbicide, the calculated values of X in each case are: […]"}, "[2]": {"settings": "cited from earlier work"}, "[3]": {"settings": "complete prevention of growth of Aspergillus niger for seven days"}},
  "note": "“And” between values parts separate entries of the source, which are not always exact repeats. Equal entries are not always repeated.",
  "data": [
    {"smiles": "CCCCCCCCn1sccc1=O", "note": "[2-N-octyl-4-isothiazolin-3-one]", "values": [
      {"measurement": "X (QA/Qa+QB/Qb), Test 1", "setting": "[1]", "value": 0.64},
      {"measurement": "QA = lowest concentration of compound A in the mixture which produced an end point", "setting": "[1]; [3]", "value": 0.1, "unit": "ppm active ingredient"},
      {"measurement": "Qb = lowest concentration of compound B acting alone which produced an end point", "setting": "[1]; [3]", "value": ">0.175", "unit": "ppm active ingredient"},
      {"measurement": "QB = lowest concentration of compound B in the mixture which produced an end point", "setting": "[1]; [3]", "value": 0.025, "unit": "ppm active ingredient"}
    ]},
    {"smiles": "O=C(CBr)OC/C=C\\COC(=O)CBr", "note": "[BBAB, 1,4-bis(bromoacetoxy)-2-butene]", "values": [
      {"measurement": "solubility in water", "setting": "[2]", "value": "extremely low"}
    ]},
    {"smiles": "CCCCNC(=O)OCC#CI", "note": "[IPBC, 3-iodo-2-propynyl butyl carbamate]", "values": [
      {"measurement": "X (QA/Qa+QB/Qb), Test 1", "setting": "[1]", "value": 0.86},
      {"measurement": "X (QA/Qa+QB/Qb), Test 2", "setting": "[1]", "value": 0.3},
      {"measurement": "QA = lowest concentration of compound A in the mixture which produced an end point", "setting": "[1]; [3]", "value": 0.025, "unit": "ppm active ingredient"},
      {"measurement": "Qb = lowest concentration of compound B acting alone which produced an end point", "setting": "[1]; [3]", "value": 0.35, "unit": "ppm active ingredient"},
      {"measurement": "QB = lowest concentration of compound B in the mixture which produced an end point", "setting": "[1]; [3]", "value": 0.05, "unit": "ppm active ingredient"}
    ]},
    {"smiles": "O=C(CBr)c1ccc(O)cc1", "note": "[BHAP, 2-bromo-4′-hydroxyacetophenone]", "values": [
      {"measurement": "X (QA/Qa+QB/Qb), Test 1", "setting": "[1]", "value": 1.22},
      {"measurement": "X (QA/Qa+QB/Qb), Test 2", "setting": "[1]", "value": 1.0},
      {"measurement": "X (QA/Qa+QB/Qb), Test 3", "setting": "[1]", "value": 0.8},
      {"measurement": "QA = lowest concentration of compound A in the mixture which produced an end point", "setting": "[1]; [3]", "value": 0.3, "unit": "ppm active ingredient"},
      {"measurement": "Qb = lowest concentration of compound B acting alone which produced an end point", "setting": "[1]; [3]", "value": ">8.0", "unit": "ppm active ingredient"},
      {"measurement": "QB = lowest concentration of compound B in the mixture which produced an end point", "setting": "[1]; [3]", "value": 1.0, "unit": "ppm active ingredient"}
    ]},
    {"smiles": "CCCCCCSC(=NC#N)SCCl", "note": "[Compound A, S-Hexyl-S′-chloromethylcyanodithiocarbimate]", "values": [
      {"measurement": "Qa = concentration of compound A acting alone which produced an end point", "setting": "[1]; compound A alone, run concomitantly with the compound B, complete prevention of growth of Aspergillus niger for seven days", "value": "0.3 ppm active ingredient and 0.25 ppm active ingredient and 0.175 ppm active ingredient and 0.35 ppm active ingredient and 0.2 ppm active ingredient"}
    ]},
    {"smiles": "N#CSCSc1nc2ccccc2s1", "note": "[TCMTB, 2-(Thiocyanomethylthio)benzothiazole]", "values": [
      {"measurement": "X (QA/Qa+QB/Qb), Test 1", "setting": "[1]", "value": 0.27},
      {"measurement": "X (QA/Qa+QB/Qb), Test 2", "setting": "[1]", "value": 0.25},
      {"measurement": "X (QA/Qa+QB/Qb), Test 3", "setting": "[1]", "value": 0.7},
      {"measurement": "QA = lowest concentration of compound A in the mixture which produced an end point", "setting": "[1]; [3]", "value": 0.15, "unit": "ppm active ingredient"},
      {"measurement": "Qb = lowest concentration of compound B acting alone which produced an end point", "setting": "[1]; [3]", "value": 1.0, "unit": "ppm active ingredient"},
      {"measurement": "QB = lowest concentration of compound B in the mixture which produced an end point", "setting": "[1]; [3]", "value": 0.05, "unit": "ppm active ingredient"}
    ]},
    {"smiles": "CCCCCCCCn1sc(Cl)c(Cl)c1=O", "note": "[4,5-dichloro-2-N-octyl-4-isothiazolin-3-one]", "values": [
      {"measurement": "X (QA/Qa+QB/Qb), Test 1", "setting": "[1]", "value": 0.7},
      {"measurement": "X (QA/Qa+QB/Qb), Test 2", "setting": "[1]", "value": 0.5},
      {"measurement": "QA = lowest concentration of compound A in the mixture which produced an end point", "setting": "[1]; [3]", "value": 0.05, "unit": "ppm active ingredient"},
      {"measurement": "Qb = lowest concentration of compound B acting alone which produced an end point", "setting": "[1]; [3]", "value": 0.2, "unit": "ppm active ingredient"},
      {"measurement": "QB = lowest concentration of compound B in the mixture which produced an end point", "setting": "[1]; [3]", "value": 0.1, "unit": "ppm active ingredient"}
    ]},
    {"smiles": "N#CSCSC#N", "note": "[MTC, Methylene-bis(thiocyanate)]", "values": [
      {"measurement": "X (QA/Qa+QB/Qb), Test 1", "setting": "[1]", "value": 0.64},
      {"measurement": "X (QA/Qa+QB/Qb), Test 2", "setting": "[1]", "value": 0.46},
      {"measurement": "X (QA/Qa+QB/Qb), Test 3", "setting": "[1]", "value": 0.29},
      {"measurement": "QA = lowest concentration of compound A in the mixture which produced an end point", "setting": "[1]; [3]", "value": 0.05, "unit": "ppm active ingredient"},
      {"measurement": "Qb = lowest concentration of compound B acting alone which produced an end point", "setting": "[1]; [3]", "value": ">0.7", "unit": "ppm active ingredient"},
      {"measurement": "QB = lowest concentration of compound B in the mixture which produced an end point", "setting": "[1]; [3]", "value": 0.1, "unit": "ppm active ingredient"}
    ]}
  ]
}
